Measurements taken from patent publication US11053204B2, “Pyrimidinyloxy benzene derivatives as herbicides” (FMC Corporation, priority 2015, dated 2021).

How the values were obtained:
Assay type in all cases: in vivo
[1] = tested on: Italian ryegrass (Lolium multiflorum); assay: Test A postemergence, visual injury rating; settings: 0 to 100 scale, 0 is no effect, 100 is complete control, approximately 10 days
Outline: (§1)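 Compounds in non-phytotoxic solvent with surfactant applied as soil spray preemergence, or postemergence to plants 2-10 cm at one- to two-leaf stage, in loam/sand. After approximately 10 days in greenhouse, injury rated visually versus untreated controls, 0 (no effect) to 100 (complete control).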

[2] = tested on: barnyardgrass (Echinochloa crus-galli); assay: Test A postemergence, visual injury rating; settings: 0 to 100 scale, 0 is no effect, 100 is complete control, approximately 10 days
Outline: as §1

[3] = tested on: blackgrass (Alopecurus myosuroides); assay: Test A postemergence, visual injury rating; settings: 0 to 100 scale, 0 is no effect, 100 is complete control, approximately 10 days
Outline: as §1

[4] = tested on: corn (Zea mays); assay: Test A postemergence, visual injury rating; settings: 0 to 100 scale, 0 is no effect, 100 is complete control, approximately 10 days
Outline: as §1

[5] = tested on: galium (catchweed bedstraw, Galium aparine); assay: Test A postemergence, visual injury rating; settings: 0 to 100 scale, 0 is no effect, 100 is complete control, approximately 10 days
Outline: as §1

[6] = tested on: giant foxtail (Setaria faberii); assay: Test A postemergence, visual injury rating; settings: 0 to 100 scale, 0 is no effect, 100 is complete control, approximately 10 days
Outline: as §1

[7] = tested on: kochia (Kochia scoparia); assay: Test A postemergence, visual injury rating; settings: 0 to 100 scale, 0 is no effect, 100 is complete control, approximately 10 days
Outline: as §1

[8] = tested on: pigweed (Amaranthus retroflexus); assay: Test A postemergence, visual injury rating; settings: 0 to 100 scale, 0 is no effect, 100 is complete control, approximately 10 days
Outline: as §1

[9] = tested on: ragweed (common ragweed, Ambrosia elatior); assay: Test A postemergence, visual injury rating; settings: 0 to 100 scale, 0 is no effect, 100 is complete control, approximately 10 days
Outline: as §1

[10] = tested on: wheat (Triticum aestivum); assay: Test A postemergence, visual injury rating; settings: 0 to 100 scale, 0 is no effect, 100 is complete control, approximately 10 days
Outline: as §1

[11] = tested on: lambsquarters (Chenopodium album); assay: Test C preemergence, plant response rating; settings: Preemergence
Outline: (§2)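 Visual injury score, 0 = no effect, 100 = complete control, assigned against untreated controls after 13 to 15 d in the greenhouse. Compounds were applied in a surfactant-containing non-phytotoxic solvent mix, preemergence to seeded loam/sand or silt loam soil, or postemergence to 1- to 4-leaf plants (2 to 18 cm).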

[12] = tested on: morningglory (Ipomoea coccinea); assay: Test C preemergence, plant response rating; settings: Preemergence
Outline: as §2

[13] = tested on: nutsedge, yellow (yellow nutsedge, Cyperus esculentus); assay: Test C preemergence, plant response rating; settings: Preemergence
Outline: as §2

[14] = tested on: velvetleaf (Abutilon theophrasti); assay: Test C preemergence, plant response rating; settings: Preemergence
Outline: as §2

[15] = tested on: waterhemp (common waterhemp, Amaranthus rudis); assay: Test C preemergence, plant response rating; settings: Preemergence
Outline: as §2

[16] = tested on: wheat (winter wheat, Triticum aestivum); assay: Test C preemergence, plant response rating; settings: Preemergence
Outline: as §2

[17] = tested on: barnyardgrass (Echinochloa crus-galli); assay: Test C postemergence, plant response rating; settings: for Plant response rating, Barnyardgrass: scale 0 to 100; for Barnyardgrass plant response rating: scale 0 to 100 (0 no effect, 100 complete control)
Outline: as §2

[18] = tested on: crabgrass, large (large crabgrass, Digitaria sanguinalis); assay: Test C postemergence, plant response rating; settings: for Crabgrass, Large plant response rating: scale 0 to 100 (0 no effect, 100 complete control)
Outline: as §2

[19] = tested on: ryegrass, Italian (Italian ryegrass, Lolium multiflorum); assay: Test C postemergence, plant response rating; settings: for Ryegrass, Italian plant response rating: scale 0 to 100 (0 no effect, 100 complete control)
Outline: as §2

O=C(CCC(F)(F)F)c1c(Br)cccc1Oc1ncc(Cl)cn1 [Compound 92]
Ryegrass, Italian plant response rating ([1]; 31 g ai/ha): 0
Ryegrass, Italian plant response rating ([1]; 125 g ai/ha): 50
Barnyardgrass plant response rating ([2]; 31 g ai/ha): 40
Barnyardgrass plant response rating ([2]; 125 g ai/ha): 100
Blackgrass plant response rating ([3]; 31 g ai/ha): 10
Blackgrass plant response rating ([3]; 125 g ai/ha): 50
Corn plant response rating ([4]; 31 g ai/ha): 10
Corn plant response rating ([4]; 125 g ai/ha): 40
Galium plant response rating ([5]; 31 g ai/ha): 90
Galium plant response rating ([5]; 125 g ai/ha): 100
Foxtail, Giant plant response rating ([6]; 31 g ai/ha): 50
Foxtail, Giant plant response rating ([6]; 125 g ai/ha): 100
Kochia plant response rating ([7]; 31 g ai/ha): 100
Kochia plant response rating ([7]; 125 g ai/ha): 100
Pigweed plant response rating ([8]; 31 g ai/ha): 100
Pigweed plant response rating ([8]; 125 g ai/ha): 100
Ragweed plant response rating ([9]; 31 g ai/ha): 0
Ragweed plant response rating ([9]; 125 g ai/ha): 20
Wheat plant response rating ([10]; 31 g ai/ha): 0
Wheat plant response rating ([10]; 125 g ai/ha): 20
Plant response rating, Lambsquarters ([11]; 125 g ai/ha, scale of 0 to 100): 100
Plant response rating, Lambsquarters ([11]; 31 g ai/ha, scale 0 to 100): 100
Plant response rating, Lambsquarters ([11]; 62 g ai/ha, scale 0 to 100): 100
Plant response rating, Morningglory ([12]; 125 g ai/ha, scale of 0 to 100): 70
Plant response rating, Morningglory ([12]; 31 g ai/ha, scale 0 to 100): 40
Plant response rating, Morningglory ([12]; 62 g ai/ha, scale 0 to 100): 60
Plant response rating, Nutsedge, Yellow ([13]; 125 g ai/ha, scale of 0 to 100): 50
Plant response rating, Nutsedge, Yellow ([13]; 31 g ai/ha, scale 0 to 100): 5
Plant response rating, Nutsedge, Yellow ([13]; 62 g ai/ha, scale 0 to 100): 5
Plant response rating, Velvetleaf ([14]; 125 g ai/ha, scale of 0 to 100): 100
Plant response rating, Velvetleaf ([14]; 31 g ai/ha, scale 0 to 100): 75
Plant response rating, Velvetleaf ([14]; 62 g ai/ha, scale 0 to 100): 100
Plant response rating, Waterhemp ([15]; 125 g ai/ha, scale of 0 to 100): 100
Plant response rating, Waterhemp ([15]; 31 g ai/ha, scale 0 to 100): 100
Plant response rating, Waterhemp ([15]; 62 g ai/ha, scale 0 to 100): 100
Plant response rating, Wheat ([16]; 125 g ai/ha, scale of 0 to 100): 20
Plant response rating, Wheat ([16]; 31 g ai/ha, scale 0 to 100): 0
Plant response rating, Wheat ([16]; 62 g ai/ha, scale 0 to 100): 0
Plant response rating, Barnyardgrass ([17]; 16 g ai/ha): 10
Plant response rating, Barnyardgrass ([17]; 31 g ai/ha): 10
Barnyardgrass plant response rating ([17]; 62 g ai/ha): 15
Barnyardgrass plant response rating ([17]; 125 g ai/ha): 20
Plant response rating, Crabgrass, Large ([18]; 16 g ai/ha, scale of 0 to 100): 20
Plant response rating, Crabgrass, Large ([18]; 31 g ai/ha, scale 0 to 100): 10
Crabgrass, Large plant response rating ([18]; 62 g ai/ha): 25
Crabgrass, Large plant response rating ([18]; 125 g ai/ha): 35
Plant response rating, Ryegrass, Italian ([19]; 16 g ai/ha, scale of 0 to 100): 10
Plant response rating, Ryegrass, Italian ([19]; 31 g ai/ha, scale 0 to 100): 15
Ryegrass, Italian plant response rating ([19]; 62 g ai/ha): 10
Ryegrass, Italian plant response rating ([19]; 125 g ai/ha): 30
